Tested on: soleus muscle
Experiment: Individual free fatty acids by gas chromatography in isolated soleus muscle from normally fed rats
Format: cell-based, rat
Procedure: Animal models. Normallyfed rats. All protocols were approved by the University of Auckland Animal Ethics Committee. Male Wistar rats, (age=50 d) weighing 200-250 g, were housed in a constant 12 h/12 h-light/dark cycle and received standard rat-chow (Diet 86, NRM, Auckland) and water ad libitum. The standard diet contained 5% fat (w/w), which comprised mainly beef tallow. The triglyceride, total and free fatty acid contents of representative samples of this diet were analyzed, and are shown in Table 3. Rats were anaesthetized by intraperitoneal injection of sodium pentobarbital (45 mg/kg body weight) then sacrificed by cervical dislocation.
Soleus muscle tissue isolation and incuhation.Immersion and incubation media was Krebs-Henseleit buffer (KHB) containing 118.5 mM NaCl, 4.75 mM KCl, 1.18 mM MgSO4.7H2O and KH2PO4, 24.8 mM NaHCO3, 2.54 mM CaCl2 and 10 mM d-glucose. The medium was gassed continuously with 95% O2/5% CO2. […] Soleus muscles of both legs were excised keeping the tissue immersed in KHB; muscles were separated into two equal parts and transferred to the incubation flasks. At the completion of incubation the muscles were snap frozen in liquid nitrogen, and then trimmed of connective tissue and all visible fat. The muscle strips were stored at −80° C. until analysis.
Lipid extraction and chromatographic separation of fatty acids. Total lipids were extracted from muscle strips by a modified version of the method of Bligh and Dyer (Gorski et al., 1988, Mol & Cell Biochem 178:113-118; 1. Bligh et al., 1959, Can J Biochem Physiol 37: 911-917). Muscles were homogenised (Soniprep 150) in 0.4 ml of deionised water. Solvent volumes used herein were varied according to the water content of the muscle (ie muscle weight) as described (Bligh & Dyer, supra). 2 vols of methanol containing 0.005% butylated hydroxy toluene (BHT) and 1 vol chloroform were added to the muscle suspension. Homogenates were vortexed at maximum speed for 2 minutes and centrifuged at 2,500 g for 4 minutes. Supernatants were recovered and pellets re-extracted with 2 vol methanol, 1 vol chloroform and 0.8 vol 0.2 N HCl. Residues were vortexed for 2 min then centrifuged at 3,500 g for 3 min. After centrifugation the combined supernatants were diluted with 2v each of milli Q water and chloroform and the phases separated by centrifugation at 3,500 g for 4 minutes. The lower chloroform phase was recovered, neutralised by dropwise addition of 0.2 N methanolic NH4OH and evaporated down in a stream of N2. The samples were stored at −80° C. until required.
Aminopropyl phase (250 mg) was packed into 16 ml teflon columns with teflon frits placed at the top and bottom of the bonded phase. Columns were placed in a Vac Elut apparatus and washed twice with 2 ml portions of hexane (Prasad et al., 1988, J Chromato 428: 221-228; Kaluzny et al., 1985, J Lipid Res 26: 135-140). The dry lipid samples were taken up in two 0.150 ml portions of chloroform and applied to the column under atmospheric pressure. After adsorption the neutral lipids were eluted with 4 ml of chloroform-2-propanol (2:1, v/v) and the free fatty acids eluted with 4 ml of 2% acetic acid in diethyl ether. The solvent containing the free fatty acids was dried under a stream of N2.
Gas-liquid chromatographic analysis. Dry free fatty acid residues were processed for derivatisation of methyl esters by the boron trifluoride-methanol method (Prasad, supra). 1 ml of boron trifluoride in methanol (BF3) was added to each sample, the sample vials were heated at 70° C. for 5 minutes, shaken vigorously, and baked for a further 10 minutes. Once the samples reached room temperature 0.5 ml milli Q water was added, the sample vials shaken, 0.1 ml heptane was added and the sample shaken again. 0.05 ml of the top heptane layer was removed for GLC analysis. […]

[1] = normally fed rats, hormone 1 hour, GC
[2] = normally fed rats, hormone 1 hour, GC, listed as norepinephrine

Question: Which results are given for NC[C@H](O)c1ccc(O)c(O)c1 [Norepinephrine, norepinephrine]?
Answer: Total free fatty acids (1 hour, GC, hormone concentrations 100 nM for all): 0.527 ± 0.03 nmol/g wwt; free fatty acid C14:0 as percentage of total resting fatty acid (normally fed rats, 1 hour): 3.1%; free fatty acid C15:0 as percentage of total resting fatty acid (normally fed rats, 1 hour): 10.9%; free fatty acid C16:0 as percentage of total resting fatty acid (normally fed rats, 1 hour): 2.2%; free fatty acid C16:1 (n-7) as percentage of total resting fatty acid (normally fed rats, 1 hour): 14.3%; free fatty acid C16:1 (n-9) as percentage of total resting fatty acid (normally fed rats, 1 hour): 6.0%; free fatty acid C17:0 as percentage of total resting fatty acid (normally fed rats, 1 hour): 7.2%; free fatty acid C18:0 as percentage of total resting fatty acid (normally fed rats, 1 hour): 2.4%; free fatty acid C18:1 (n-7) as percentage of total resting fatty acid (normally fed rats, 1 hour): 1.2%; free fatty acid C18:1 (n-9) as percentage of total resting fatty acid (normally fed rats, 1 hour): 1.4%; free fatty acid C18:2 as percentage of total resting fatty acid (normally fed rats, 1 hour): 0.8%; free fatty acid C18:3 as percentage of total resting fatty acid (normally fed rats, 1 hour): 2.5%; free fatty acid C20:0 as percentage of total resting fatty acid (normally fed rats, 1 hour): 2.0%; free fatty acid C20:4 as percentage of total resting fatty acid (normally fed rats, 1 hour): 0.9%; free fatty acid C20:5 as percentage of total resting fatty acid (normally fed rats, 1 hour): 0.4%; free fatty acid C22:4 as percentage of total resting fatty acid (normally fed rats, 1 hour): 7.5%; free fatty acid C22:6 as percentage of total resting fatty acid (normally fed rats, 1 hour): 2.5%; free fatty acid adrenic C22:4 [1]: 0.007 ± 0.001 nmol/g wwt; free fatty acid arachidic C20:0 [1]: 0.003 ± 0.001 nmol/g wwt; free fatty acid arachidonic C20:4 [1]: 0.015 ± 0.0007 nmol/g wwt; free fatty acid cervonic C22:6 [1]: 0.022 ± 0.0015 nmol/g wwt; free fatty acid linoleic C18:2 [1]: 0.043 ± 0.003 nmol/g wwt; free fatty acid linolenic C18:3 [1]: 0.007 ± 0.0025 nmol/g wwt; free fatty acid margaric C17:0 [1]: 0.01 ± 0.0007 nmol/g wwt; free fatty acid myristic C14:0 [1]: 0.023 ± 0.001 nmol/g wwt; free fatty acid oleic C18:1 [1]: 0.07 ± 0.0056 nmol/g wwt; free fatty acid palmitic C16:0 [1]: 0.175 ± 0.011 nmol/g wwt; free fatty acid palmitoleic (n-7) C16:1 [1]: 0.015 ± 0.002 nmol/g wwt; free fatty acid palmitoleic (n-9) C16:1 [1]: 0.007 ± 0.0007 nmol/g wwt; free fatty acid pentadecanoic C15:0 [1]: 0.01 ± 0.0012 nmol/g wwt; free fatty acid stearic C18:0 [1]: 0.1 ± 0.006 nmol/g wwt; free fatty acid timnodonic C20:5 [1]: 0.002 ± 0.0005 nmol/g wwt; free fatty acid vaccenic C18:1 [1]: 0.015 ± 0.0008 nmol/g wwt; free fatty acid arachidonic C20:4 [2]: 0.015±0.0007 nmol/g wwt; free fatty acid cervonic C22:6 [2]: 0.022±0.0015 nmol/g wwt; free fatty acid palmitoleic (n-9) C16:1 [2]: 0.007±0.0007 nmol/g wwt

— patent publication US20040038861A1, “Methods and compositions for normalizing lipid levels in mammalian tissues” (priority 2001, published 2004)
